According to the supplement of paper PMC10307832:

Columns and labels:
Assay in all cases: relative viability (nuclei count vs DMSO), 5 days (fraction); higher = more cells survive
FH535 + Vorinostat = compound: CC1=C(C=CC(=C1)[N+](=O)[O-])NS(=O)(=O)C2=C(C=CC(=C2)Cl)Cl [FH535] + O=C(CCCCCCC(=O)Nc1ccccc1)NO [Vorinostat] (partner 1 µM)
Summary of the method: (§1)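 Relative viability is defined as nuclei in treated wells over nuclei in vehicle wells. Duplicate plates were run and medians reported. Lung cancer cell lines in 1536-well plates were dosed by pin tool one day after seeding, with one drug or with a fixed anchor-drug dose plus five library-drug doses (not always all listed) in √10 steps, and nuclei were counted after 5 days.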

FH535 + Foretinib = compound: CC1=C(C=CC(=C1)[N+](=O)[O-])NS(=O)(=O)C2=C(C=CC(=C2)Cl)Cl [FH535] + COc1cc2c(Oc3ccc(NC(=O)C4(C(=O)Nc5ccc(F)cc5)CC4)cc3F)ccnc2cc1OCCCN1CCOCC1 [Foretinib] (partner 0.25 µM)
Summary of the method: as §1

FH535 + Bortezomib = compound: CC1=C(C=CC(=C1)[N+](=O)[O-])NS(=O)(=O)C2=C(C=CC(=C2)Cl)Cl [FH535] + CC(C)C[C@H](NC(=O)[C@H](Cc1ccccc1)NC(=O)c1cnccn1)B(O)O [Bortezomib] (partner 0.002 µM)
Summary of the method: as §1

FH535 + Tozasertib = compound: CC1=C(C=CC(=C1)[N+](=O)[O-])NS(=O)(=O)C2=C(C=CC(=C2)Cl)Cl [FH535] + Cc1cc(Nc2cc(N3CCN(C)CC3)nc(Sc3ccc(NC(=O)C4CC4)cc3)n2)n[nH]1 [Tozasertib] (partner 0.1 µM)
Summary of the method: as §1

FH535 + Luminespib = compound: CC1=C(C=CC(=C1)[N+](=O)[O-])NS(=O)(=O)C2=C(C=CC(=C2)Cl)Cl [FH535] + CCNC(=O)c1noc(-c2cc(C(C)C)c(O)cc2O)c1-c1ccc(CN2CCOCC2)cc1 [Luminespib] (partner 0.01 µM)
Summary of the method: as §1

Cell Line	relative viability (FH535 + Vorinostat; first compound 0.04 µM)	relative viability (FH535 + Vorinostat; first compound 0.1265 µM)	relative viability (FH535 + Vorinostat; first compound 0.4 µM)	relative viability (FH535 + Vorinostat; first compound 1.265 µM)	relative viability (FH535 + Foretinib; first compound 0.04 µM)	relative viability (FH535 + Foretinib; first compound 0.1265 µM)	relative viability (FH535 + Foretinib; first compound 0.4 µM)	relative viability (FH535 + Foretinib; first compound 1.265 µM)	relative viability (FH535 + Bortezomib; first compound 0.04 µM)	relative viability (FH535 + Bortezomib; first compound 0.1265 µM)	relative viability (FH535 + Bortezomib; first compound 0.4 µM)	relative viability (FH535 + Bortezomib; first compound 1.265 µM)	relative viability (FH535 + Tozasertib; first compound 0.04 µM)	relative viability (FH535 + Tozasertib; first compound 0.1265 µM)	relative viability (FH535 + Tozasertib; first compound 0.4 µM)	relative viability (FH535 + Tozasertib; first compound 1.265 µM)	relative viability (FH535 + Luminespib; first compound 0.04 µM)	relative viability (FH535 + Luminespib; first compound 0.1265 µM)	relative viability (FH535 + Luminespib; first compound 0.4 µM)	relative viability (FH535 + Luminespib; first compound 1.265 µM)
NCI-H1650	0.492	0.564	0.509	0.441	0.966	1.28	1.01	0.825	0.198	0.195	0.184	0.2	0.369	0.425	0.513	0.343	0.175	0.218	0.201	0.189
NCI-H1651	0.473	0.531	0.606	0.52	0.888	0.856	0.697	0.584	0.876	0.911	0.889	0.779	0.753	0.639	0.633	0.64	1.01	0.701	0.748	0.591
NCI-H1666	1.01	0.995	0.992	0.959	0.919	0.975	0.913	0.8	0.725	0.882	0.705	0.625	0.6	0.544	0.631	0.545	0.988	0.933	0.966	0.983
NCI-H1734	0.547	0.784	0.822	0.778	–	0.91	0.886	0.773	0.775	0.894	0.771	0.828	–	0.26	0.263	0.297	–	0.207	0.215	0.176
NCI-H1755	0.616	0.807	0.752	0.707	0.862	0.894	0.874	0.854	0.982	0.951	0.793	0.817	0.569	0.533	0.515	0.525	0.394	0.445	0.38	0.418
NCI-H1915	0.44	0.481	0.534	0.532	1.11	1.08	1.01	0.738	0.955	0.855	0.986	0.904	0.38	0.418	0.429	0.356	0.81	0.797	0.775	0.644
NCI-H1975	0.651	0.744	0.675	0.622	0.889	0.973	0.936	0.789	0.312	0.381	0.374	0.338	0.654	0.726	0.602	0.635	0.178	0.22	0.164	0.167
NCI-H1993	0.822	0.801	0.606	0.57	0.76	0.753	0.741	0.575	1.01	0.927	0.895	0.811	0.53	0.596	0.551	0.472	0.87	0.736	0.55	0.449
NCI-H2009	0.732	0.762	0.693	0.602	1.27	1.22	1.18	0.929	0.92	0.984	0.896	0.58	0.777	0.806	0.747	0.631	0.996	1.02	0.938	0.686
NCI-H2023	0.473	0.703	0.663	0.537	0.876	0.995	0.699	0.743	0.816	0.995	1.03	0.726	0.296	0.371	0.354	0.301	0.838	0.704	0.681	0.64
NCI-H2085	0.815	0.849	0.659	0.62	1.01	0.869	0.89	0.59	1.14	0.917	0.977	0.819	0.845	0.784	0.726	0.522	0.333	0.481	0.41	0.268
NCI-H2087	0.566	0.782	0.693	0.551	1.05	1.07	0.916	0.766	0.7	0.57	0.719	0.528	0.252	0.223	0.276	0.212	0.178	0.141	0.147	0.191
NCI-H2126	0.72	0.782	0.727	0.567	0.955	1.31	1.06	0.601	1.07	1.1	0.986	0.879	0.809	0.823	0.832	0.583	0.841	0.919	0.868	0.514
NCI-H2228	0.585	0.698	0.977	0.593	0.752	0.87	0.707	0.936	0.933	0.81	0.839	0.829	0.238	0.244	0.305	0.215	0.127	0.152	0.156	0.0969
NCI-H2347	0.753	0.681	0.608	0.52	0.792	0.865	1.03	0.701	0.843	1	1.02	0.627	0.633	0.461	0.522	0.631	0.617	0.333	0.39	0.752
NCI-H2405	0.945	0.965	0.776	0.458	1.01	1.07	0.967	0.761	0.987	0.916	0.906	0.509	0.746	0.755	0.782	0.579	0.76	0.752	0.602	0.605
